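Compound exposure: 48 hours, 5 concentrations, 96-well plates. At the GI50, growth is halved.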 Calls of active or inactive are those of the source. No stated cut-off is given here; in the data, active = GI50 up to about 1.1 µM and inactive = higher.

This is an account of results in ChEMBL document CHEMBL1201862, “PubChem BioAssay data set” (2004).

Test systems include SF-268; SW-620; SK-MEL-2; SNB-75; A549; UACC-257; RPMI-8226; HCT-15; NCI-H522; SK-MEL-5; SK-OV-3; ACHN; KM12; COLO 205.
What all share (assay): NCI anticancer screen, dose series, 48 h

Regarding `Cc1ccc([N+](=O)[O-])cc1NC(=O)c1cccc([N+](=O)[O-])c1O`, the GI50 in the assay on SF-268 was 14.6 µM (inactive); in the assay with SW-620, 34.2 µM (inactive); with SK-MEL-2, 7.98 µM (inactive); in the assay with SNB-75, 13.4 µM (inactive); in the assay on A549, 22.4 µM (inactive); in the assay on UACC-257, 9.59 µM (inactive). The GI50 was 4.73 µM (inactive) in the assay on RPMI-8226; 25 µM in the assay with HCT-15; 3.97 µM (inactive) with NCI-H522; 7.91 µM (inactive) with SK-MEL-5; 17.1 µM (inactive) in the assay with SK-OV-3; 14.4 µM (inactive) in the assay on ACHN. The GI50 with KM12 was 19.1 µM (inactive); in the assay on COLO 205, 17.1 µM (inactive).

On to `O=C(O)C1CCCCN1C(=O)c1ccccc1` (stereo not given), for which the GI50 with SF-268, in the assay with SW-620, in the assay on SNB-75, with A549, in the assay with UACC-257 and in the assay with RPMI-8226 was > 100 µM (inactive) in each case. Further, the GI50 with HCT-15 is greater than 100 µM; with SK-MEL-5, > 100 µM (inactive); in the assay on SK-OV-3 it was > 100 µM (inactive); with ACHN it was > 100 µM (inactive); with KM12 it was > 100 µM (inactive); in the assay with COLO 205, > 100 µM (inactive).

In the case of `CC(=O)OCC1OC(N2C(=O)/C(=N\NC(N)=S)c3ccc([N+](=O)[O-])cc32)C(OC(C)=O)C1OC(C)=O` (stereo not given), the GI50 was 30.8 µM (inactive) in the assay on SF-268; 36.9 µM (inactive) with SW-620; 20.7 µM (inactive) in the assay with SK-MEL-2; 18.6 µM (inactive) in the assay with SNB-75; 40.8 µM (inactive) in the assay on A549; 37.4 µM (inactive) with UACC-257. Moreover, the GI50 with RPMI-8226 is 27.9 µM (inactive); in the assay with HCT-15 it was 76 µM; in the assay with NCI-H522, 15 µM (inactive); in the assay on SK-MEL-5 it was 32 µM (inactive); in the assay with SK-OV-3, > 100 µM (inactive); in the assay on ACHN, 30.7 µM (inactive). Further, the GI50 in the assay on KM12 was 38.5 µM (inactive); in the assay with COLO 205 it was 31 µM (inactive).

On to `CN(C)CCNC(=O)c1cccc2ccc(-c3cccnc3)nc12`, for which the GI50 in the assay on SF-268 is 5.65 µM (inactive); in the assay on SW-620 it was 3.76 µM (inactive); in the assay on SK-MEL-2, 8.57 µM (inactive); with SNB-75, 10.6 µM (inactive); in the assay with A549, 3.7 µM (inactive); in the assay with UACC-257, 4.15 µM (inactive). The GI50 in the assay on HCT-15 is 4.06 µM; in the assay with SK-MEL-5 it was 3.72 µM (inactive); in the assay with SK-OV-3, 10.1 µM (inactive); in the assay with ACHN, 3.44 µM (inactive); in the assay on KM12, 6.5 µM (inactive); with COLO 205 it was 3.13 µM (inactive).

In the case of `C/N=C1\S/C(=N\c2ccc(N(C)C)cc2)N1C`, the GI50 was 24.9 µM (inactive) with SF-268; 38.1 µM (inactive) in the assay with SW-620; 33.9 µM (inactive) in the assay on SK-MEL-2; 19 µM (inactive) in the assay with SNB-75; 43 µM (inactive) in the assay with A549; 47.8 µM (inactive) in the assay with UACC-257. For the same compound, the GI50 was 34.5 µM (inactive) in the assay with RPMI-8226; 30.5 µM with HCT-15; 25.8 µM (inactive) in the assay with NCI-H522; 25.2 µM (inactive) with SK-MEL-5; 26.8 µM (inactive) in the assay on SK-OV-3; 57.1 µM (inactive) with KM12. Besides, the GI50 in the assay with COLO 205 was 39.4 µM (inactive).

As for `O=C1N2Cc3c4ccc5c3CN3C(=O)N6Cc7c(ccc(c7CN1C6(c1ccccc1)C23c1ccccc1)OCCOCCOc1cc(Br)c(Br)cc1OCCOCCO4)OCCOCCOc1cc(Br)c(Br)cc1OCCOCCO5` (stereo not given), the GI50 in the assay with SF-268 was > 100 µM (inactive); in the assay on SW-620 it was 15.1 µM (inactive); in the assay with SK-MEL-2 it was 91 µM (inactive); with SNB-75 it was 38.2 µM (inactive); in the assay with A549, > 100 µM (inactive); in the assay on UACC-257, > 100 µM (inactive). Moreover, the GI50 is > 100 µM (inactive) in the assay on RPMI-8226; 25.4 µM in the assay with HCT-15; > 100 µM (inactive) in the assay on NCI-H522; 44.3 µM (inactive) in the assay with SK-MEL-5; > 100 µM (inactive) with SK-OV-3; 47.8 µM (inactive) in the assay with ACHN. In addition, the GI50 with KM12 was > 100 µM (inactive).

For `Cn1c(=O)c(NC(=O)C(Cl)(Cl)Cl)nc2ccccc21`, the GI50 in the assay on SF-268 is > 100 µM (inactive); in the assay with SW-620 it was > 100 µM (inactive); in the assay with SK-MEL-2, > 100 µM (inactive); in the assay with SNB-75 it was 62.5 µM (inactive); in the assay on A549, > 100 µM (inactive); with UACC-257 it was > 100 µM (inactive). Further, the GI50 was > 100 µM (inactive) in the assay on RPMI-8226; greater than 100 µM in the assay on HCT-15; > 100 µM (inactive) in the assay on NCI-H522; > 100 µM (inactive) with SK-MEL-5; > 100 µM (inactive) with SK-OV-3; > 100 µM (inactive) with KM12. In addition, in the assay with COLO 205, the GI50 was > 100 µM (inactive).

On to `O=C(O)CCSC(=S)Nc1cccc(F)c1`, for which the GI50 in the assay on SF-268 is 45.6 µM (inactive); in the assay on SW-620, > 100 µM (inactive); in the assay with SNB-75, 82 µM (inactive); in the assay with A549 it was 77.4 µM (inactive); in the assay with UACC-257, 22.3 µM (inactive); in the assay on RPMI-8226 it was 31.6 µM (inactive). The GI50 in the assay on HCT-15 was 27 µM; in the assay on SK-MEL-5, 20 µM (inactive); in the assay on SK-OV-3 it was > 100 µM (inactive); in the assay on ACHN it was 23.8 µM (inactive); in the assay on KM12, 42.1 µM (inactive); in the assay with COLO 205, 57.5 µM (inactive).

As to `CC1CCc2c(sc3ncnc(N/N=C/c4ccc(Cl)cc4)c23)C1` (stereo not given), the GI50 is 25.1 µM (inactive) in the assay with SF-268; 35.6 µM (inactive) in the assay on SW-620; 48.8 µM (inactive) in the assay with SK-MEL-2; 78.9 µM (inactive) in the assay with SNB-75; 31 µM (inactive) in the assay with A549; 29.8 µM (inactive) in the assay with UACC-257. The GI50 in the assay on RPMI-8226 is 29.9 µM (inactive); in the assay with HCT-15, 32.3 µM; in the assay with NCI-H522 it was 25.9 µM (inactive); in the assay on SK-MEL-5, 17.6 µM (inactive); with SK-OV-3, 35.6 µM (inactive); in the assay on ACHN, 27.3 µM (inactive). Further, the GI50 in the assay on COLO 205 was 31.6 µM (inactive).

Consider `CC1=NN(C(=O)c2cc(Cl)cc([N+](=O)[O-])c2)C(=O)C1/N=N/c1ccccc1C(=O)O` (stereo not given), for which the GI50 with SF-268 is > 100 µM (inactive); with SW-620, > 100 µM (inactive); in the assay with SK-MEL-2, > 100 µM (inactive); in the assay with SNB-75, 75.2 µM (inactive); in the assay with A549, > 100 µM (inactive); in the assay with UACC-257 it was > 100 µM (inactive). Also, the GI50 was > 100 µM (inactive) in the assay with RPMI-8226; 36.6 µM (inactive) in the assay with NCI-H522; > 100 µM (inactive) in the assay on SK-MEL-5; > 100 µM (inactive) in the assay with SK-OV-3; > 100 µM (inactive) with ACHN; > 100 µM (inactive) in the assay with KM12. Besides, in the assay with COLO 205, the GI50 is > 100 µM (inactive).

With `CCC(C)COC(=O)c1ccc(/N=C\c2ccc(/C=N/c3ccc(C(=O)OCC(C)CC)cc3)cc2)cc1` (stereo not given), the GI50 with SF-268, in the assay on SW-620, in the assay on SK-MEL-2, in the assay with SNB-75, in the assay with A549 and with UACC-257 was > 100 µM (inactive) in each case. Moreover, the GI50 is > 100 µM (inactive) with RPMI-8226; greater than 100 µM with HCT-15; > 100 µM (inactive) with NCI-H522; > 100 µM (inactive) in the assay with SK-MEL-5; > 100 µM (inactive) with SK-OV-3; > 100 µM (inactive) with ACHN. Besides, the GI50 with COLO 205 is > 100 µM (inactive).

Consider `C=CCN1C(=O)CS/C1=N\NC(=O)c1c(C)nc2sccn12`, for which the GI50 in the assay on SF-268, with SW-620, in the assay with SK-MEL-2, in the assay with A549, in the assay on UACC-257 and with RPMI-8226 was > 100 µM (inactive) each time. Also, the GI50 in the assay on HCT-15 was greater than 100 µM; in the assay with NCI-H522, > 100 µM (inactive); in the assay on SK-MEL-5, > 100 µM (inactive); in the assay on SK-OV-3 it was > 100 µM (inactive); in the assay with ACHN, > 100 µM (inactive); in the assay on KM12, > 100 µM (inactive). Further, in the assay with COLO 205, the GI50 was > 100 µM (inactive).

As to `CCOC(=O)CCc1c(C)c2c(OC(C)=O)cc(OC(C)=O)cc2oc1=O`, the GI50 in the assay with SF-268 was 23.3 µM (inactive); in the assay on SW-620, 45.7 µM (inactive); with SK-MEL-2, 28.4 µM (inactive); in the assay with SNB-75, 21.7 µM (inactive); with A549, 47.2 µM (inactive); in the assay on UACC-257 it was 38.9 µM (inactive). Also, the GI50 is 50.4 µM (inactive) in the assay with NCI-H522, 28.1 µM (inactive) in the assay on ACHN, 37.4 µM (inactive) with KM12 and > 100 µM (inactive) in the assay on COLO 205.

In the case of `COc1ccc(C2NCCc3c2[nH]c2ccccc32)cc1` (stereo not given), the GI50 is > 100 µM (inactive) in the assay with SF-268; > 100 µM (inactive) in the assay on SW-620; 30.5 µM (inactive) in the assay on SNB-75; 48.2 µM (inactive) in the assay with A549; 45.6 µM (inactive) in the assay with UACC-257; > 100 µM (inactive) in the assay on RPMI-8226. Further, the GI50 is greater than 100 µM in the assay with HCT-15; > 100 µM (inactive) with NCI-H522; 22.5 µM (inactive) in the assay on SK-MEL-5; > 100 µM (inactive) with SK-OV-3; > 100 µM (inactive) with ACHN; > 100 µM (inactive) with KM12. Besides, the GI50 in the assay on COLO 205 was 32.2 µM (inactive).

As for `CCN(CC)CCOC(=O)c1ccc(N)cc1.CCOC(=O)Nc1ccc(S(=O)(=O)OC)cc1.CCOC(=O)Nc1ccc(S(=O)(=O)OC)cc1.Nc1ccc(C(=O)O)c(O)c1`, the GI50 is > 100 µM (inactive) in the assay on SF-268; > 100 µM (inactive) in the assay on SW-620; > 100 µM (inactive) in the assay on SK-MEL-2; 40.2 µM (inactive) in the assay on SNB-75; > 100 µM (inactive) with A549; > 100 µM (inactive) in the assay on UACC-257. In addition, the GI50 is greater than 100 µM in the assay with HCT-15; > 100 µM (inactive) with NCI-H522; > 100 µM (inactive) with SK-MEL-5; > 100 µM (inactive) in the assay with SK-OV-3; > 100 µM (inactive) with ACHN; > 100 µM (inactive) in the assay with KM12.
